Laboratory results taken from patent US8735584B2 (Merck Patent GmbH, priority 2008, dated 2014).

How the values were obtained:
Assay type in all cases: biochemical
LCK = molecular target: T1, LCK (Homo sapiens, UniProt P06239); experiment: Desktop Profiler kinase panel, LCK; details: 10 micromolar concentration of the compound; read-out: Percent Inhibition LCK
T1 construct: purchased Caliper Life Sciences
Method: (§1) The Aurora assays described here are performed on two Caliper Life Sciences systems: the LC3000 and the Desktop Profiler. These provide data on enzyme activity via measurement of the relative amounts of phosphorylated or unphosphorylated fluorescently labelled substrate peptide at the end of an enzymatic reaction. These different states of peptide are resolved by applying a potential difference across the sample. The presence of the charged phosphate group on the product (as opposed to the substrate) causes a different peptide mobility between the two peptides. This is visualized by excitation of the fluorescent label on the substrate and product peptides and represented as peaks within the analysis software.
(§2) The Desktop Profiler utilizes the same principle as the LC3000 for calculating percentage conversion of a substrate to product. Caliper Life Sciences provides proprietary flash frozen pre-made 384 well plates containing selected kinases. Each column in the 384 well plate contains a particular selected kinase. A second plate, the ‘substrate plate’ contains a mix of fluorescently labeled peptide substrate and ATP. These are arranged in columns so that transfer for substrate plate to enzyme plate provides the correct enzyme with the correct substrate/ATP concentration. Compounds are added to a thawed enzyme plate in the desired format, in single concentrations. Reactions are initiated by transfer of the substrate/ATP mix from the substrate plate. The enzyme plate is incubated for 90 mins at 25 C. The reaction is stopped by addition of 70 ul of Stop Buffer (100 mM HEPES pH 7.5, 0.015% Brij-35, 10 mM EDTA (Sigma, E7889)).
(§3) Reading of the plate in the Profiler is identical to the LC3000, and the ratio between substrate and product peaks provides the activity of the enzyme in that well. This is best represented by a plate heat map which colors each well by percent inhibition as compared to positive and negative controls (no inhibitors and no ATP respectively).
(§4) In the following Tables 3a-4-b, which show the results of the desktop profiler measurements, “+” means 50-70% inhibition, “++” means 70-90% inhibition, and “+++” means >90% inhibition. The enzymes tested for profiling were ABL, AKT1, AKT2, AurA, CHK1, CHK2, CK1d, Erk1, Erk2, FYN, GSK3b, INSR, LCK, LYN, MAPKAPK2, MET, MSK1, p38a, PKA, PKCz, PKD2, PRAK, RSK1 and SRC.

PKA = molecular target: T2, PKA (Homo sapiens, UniProt P17612); experiment: Desktop Profiler kinase panel, PKA; details: 10 micromolar concentration of the compound; read-out: Percent Inhibition PKA
T2 construct: purchased Caliper Life Sciences
Method: as §1, §2, §3, §4

AKT1 = molecular target: T3, AKT1 (Homo sapiens, UniProt P31749); experiment: Desktop Profiler kinase panel, AKT1; details: 10 micromolar concentration of the compound; read-out: Percent Inhibition AKT1
T3 construct: purchased Caliper Life Sciences
T3 sequence (P31749 whole entry, species assumed): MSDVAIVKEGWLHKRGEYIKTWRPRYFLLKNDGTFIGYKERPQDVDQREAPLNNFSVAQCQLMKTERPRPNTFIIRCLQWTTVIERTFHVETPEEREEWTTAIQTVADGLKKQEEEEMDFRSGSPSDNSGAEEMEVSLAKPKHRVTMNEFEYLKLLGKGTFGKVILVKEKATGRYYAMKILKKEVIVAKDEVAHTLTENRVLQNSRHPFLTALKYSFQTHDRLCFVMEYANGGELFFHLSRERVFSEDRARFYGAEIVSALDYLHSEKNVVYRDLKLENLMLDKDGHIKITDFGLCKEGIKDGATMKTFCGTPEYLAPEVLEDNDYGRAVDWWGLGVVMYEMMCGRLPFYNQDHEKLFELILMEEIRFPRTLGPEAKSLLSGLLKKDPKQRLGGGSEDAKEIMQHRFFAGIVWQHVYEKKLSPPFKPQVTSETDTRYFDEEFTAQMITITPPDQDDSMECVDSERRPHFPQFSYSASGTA
Method: as §1
(§5) The Desktop Profiler utilizes the same principle as the LC3000 for calculating percentage conversion of a substrate to product. Caliper Life Sciences provides proprietary flash frozen pre-made 384 well plates containing selected kinases. Each column in the 384 well plate contains a particular selected kinase. A second plate, the ‘substrate plate’ contains a mix of fluorescently labeled peptide substrate and ATP. […]
(§6) Reading of the plate in the Profiler is identical to the LC3000, and the ratio between substrate and product peaks provides the activity of the enzyme in that well. […]

PRAK = molecular target: T4, PRAK (Homo sapiens, UniProt Q8IW41); experiment: Desktop Profiler kinase panel, PRAK; details: 10 micromolar concentration of the compound; read-out: Percent Inhibition PRAK
T4 construct: purchased Caliper Life Sciences
T4 sequence (Q8IW41 1-473): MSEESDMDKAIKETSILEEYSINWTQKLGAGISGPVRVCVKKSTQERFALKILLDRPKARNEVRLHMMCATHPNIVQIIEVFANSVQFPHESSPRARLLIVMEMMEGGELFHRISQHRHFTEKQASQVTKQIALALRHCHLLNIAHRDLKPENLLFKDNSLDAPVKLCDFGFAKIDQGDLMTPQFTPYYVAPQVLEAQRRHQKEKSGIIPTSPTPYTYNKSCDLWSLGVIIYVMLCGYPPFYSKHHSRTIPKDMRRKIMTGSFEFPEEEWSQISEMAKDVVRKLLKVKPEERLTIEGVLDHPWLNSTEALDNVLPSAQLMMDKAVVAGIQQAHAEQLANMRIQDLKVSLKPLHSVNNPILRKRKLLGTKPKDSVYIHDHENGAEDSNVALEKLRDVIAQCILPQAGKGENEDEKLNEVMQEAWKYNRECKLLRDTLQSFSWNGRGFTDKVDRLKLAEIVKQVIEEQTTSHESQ
Method: as §1, §2
as §3, with “respectively). […]” for “respectively).”

LYN = molecular target: T5, LYN (Homo sapiens, UniProt P07948); experiment: Desktop Profiler kinase panel, LYN; details: 10 micromolar concentration of the compound; read-out: Percent Inhibition LYN
T5 construct: purchased Caliper Life Sciences
T5 sequence (P07948 whole entry, species assumed): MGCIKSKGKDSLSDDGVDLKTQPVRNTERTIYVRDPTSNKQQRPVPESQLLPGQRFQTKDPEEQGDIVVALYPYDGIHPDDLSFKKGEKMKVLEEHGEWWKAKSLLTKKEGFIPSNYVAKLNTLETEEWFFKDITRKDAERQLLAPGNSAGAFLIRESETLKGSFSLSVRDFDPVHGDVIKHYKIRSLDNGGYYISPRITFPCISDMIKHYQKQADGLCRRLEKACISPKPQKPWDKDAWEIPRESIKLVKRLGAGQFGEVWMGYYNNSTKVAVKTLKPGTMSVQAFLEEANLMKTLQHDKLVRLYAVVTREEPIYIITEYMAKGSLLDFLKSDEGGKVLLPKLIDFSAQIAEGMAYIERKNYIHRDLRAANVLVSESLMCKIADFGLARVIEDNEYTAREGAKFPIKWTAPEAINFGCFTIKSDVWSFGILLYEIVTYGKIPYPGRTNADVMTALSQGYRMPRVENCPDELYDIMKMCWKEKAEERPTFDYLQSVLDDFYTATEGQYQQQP
Method: as §1, §2, §3, §4

MSK1 = molecular target: T6, MSK1 (Homo sapiens, UniProt O75582); experiment: Desktop Profiler kinase panel, MSK1; details: 10 micromolar concentration of the compound; read-out: Percent Inhibition MSK1
T6 construct: purchased Caliper Life Sciences
T6 sequence (O75582 whole entry, species assumed): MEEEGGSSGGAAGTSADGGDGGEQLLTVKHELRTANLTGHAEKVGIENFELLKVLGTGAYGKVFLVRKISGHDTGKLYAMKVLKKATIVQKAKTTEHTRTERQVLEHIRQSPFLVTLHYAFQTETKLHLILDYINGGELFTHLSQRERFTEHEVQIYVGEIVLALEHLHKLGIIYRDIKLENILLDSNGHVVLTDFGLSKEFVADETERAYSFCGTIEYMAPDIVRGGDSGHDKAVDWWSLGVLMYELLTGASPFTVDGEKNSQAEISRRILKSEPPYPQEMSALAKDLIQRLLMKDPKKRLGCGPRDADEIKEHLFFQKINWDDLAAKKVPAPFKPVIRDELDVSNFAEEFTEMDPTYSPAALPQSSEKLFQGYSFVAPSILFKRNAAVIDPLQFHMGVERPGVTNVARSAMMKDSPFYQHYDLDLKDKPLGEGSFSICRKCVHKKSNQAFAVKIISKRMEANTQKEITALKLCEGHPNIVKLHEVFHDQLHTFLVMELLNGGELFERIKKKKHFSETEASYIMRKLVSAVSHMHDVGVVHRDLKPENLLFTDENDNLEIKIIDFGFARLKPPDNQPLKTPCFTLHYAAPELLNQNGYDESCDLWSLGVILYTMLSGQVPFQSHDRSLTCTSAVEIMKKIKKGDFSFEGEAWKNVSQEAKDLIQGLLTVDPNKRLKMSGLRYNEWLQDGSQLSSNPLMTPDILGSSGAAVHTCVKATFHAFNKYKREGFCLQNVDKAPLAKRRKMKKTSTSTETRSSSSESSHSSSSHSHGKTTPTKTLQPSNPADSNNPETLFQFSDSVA
Method: as §1, §2
as §3, with “respectively). […]” for “respectively).”

Erk2 = molecular target: T7, Erk2 (Homo sapiens, UniProt P28482); experiment: Desktop Profiler kinase panel, Erk2; details: 10 micromolar concentration of the compound; read-out: Percent Inhibition Erk2
T7 construct: purchased Caliper Life Sciences
T7 sequence (P28482 whole entry, species assumed): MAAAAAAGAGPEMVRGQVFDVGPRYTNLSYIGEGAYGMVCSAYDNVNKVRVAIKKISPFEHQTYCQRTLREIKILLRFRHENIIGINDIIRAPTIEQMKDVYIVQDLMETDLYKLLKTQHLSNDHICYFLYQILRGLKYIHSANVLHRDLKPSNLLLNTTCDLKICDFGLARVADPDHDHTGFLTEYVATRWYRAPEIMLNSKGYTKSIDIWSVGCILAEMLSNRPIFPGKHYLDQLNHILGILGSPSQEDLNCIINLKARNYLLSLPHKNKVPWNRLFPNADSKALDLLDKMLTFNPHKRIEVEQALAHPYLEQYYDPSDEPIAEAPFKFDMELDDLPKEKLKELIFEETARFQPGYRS
Method: as §1, §5, §6

Erk1 = molecular target: T8, Erk1 (Homo sapiens, UniProt P27361); experiment: Desktop Profiler kinase panel, Erk1; details: 10 micromolar concentration of the compound; read-out: Percent Inhibition Erk1
T8 construct: purchased Caliper Life Sciences
T8 sequence (P27361 whole entry, species assumed): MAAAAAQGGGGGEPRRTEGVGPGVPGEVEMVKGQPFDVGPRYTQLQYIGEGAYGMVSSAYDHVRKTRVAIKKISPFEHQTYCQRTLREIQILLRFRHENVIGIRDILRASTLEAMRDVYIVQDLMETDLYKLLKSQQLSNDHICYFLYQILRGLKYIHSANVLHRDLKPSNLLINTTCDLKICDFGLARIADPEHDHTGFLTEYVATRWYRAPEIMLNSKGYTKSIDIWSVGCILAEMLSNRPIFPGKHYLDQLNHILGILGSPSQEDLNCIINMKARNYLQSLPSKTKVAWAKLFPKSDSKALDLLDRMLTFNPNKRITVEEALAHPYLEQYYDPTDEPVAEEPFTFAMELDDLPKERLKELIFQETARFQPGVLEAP
Method: as §1, §5, §6

MAPKAPK2 = molecular target: T9, MAPKAPK2 (Homo sapiens, UniProt P49137); experiment: Desktop Profiler kinase panel, MAPKAPK2; details: 10 micromolar concentration of the compound; read-out: Percent Inhibition MAPKAPK2
T9 construct: purchased Caliper Life Sciences
T9 sequence (P49137 whole entry, species assumed): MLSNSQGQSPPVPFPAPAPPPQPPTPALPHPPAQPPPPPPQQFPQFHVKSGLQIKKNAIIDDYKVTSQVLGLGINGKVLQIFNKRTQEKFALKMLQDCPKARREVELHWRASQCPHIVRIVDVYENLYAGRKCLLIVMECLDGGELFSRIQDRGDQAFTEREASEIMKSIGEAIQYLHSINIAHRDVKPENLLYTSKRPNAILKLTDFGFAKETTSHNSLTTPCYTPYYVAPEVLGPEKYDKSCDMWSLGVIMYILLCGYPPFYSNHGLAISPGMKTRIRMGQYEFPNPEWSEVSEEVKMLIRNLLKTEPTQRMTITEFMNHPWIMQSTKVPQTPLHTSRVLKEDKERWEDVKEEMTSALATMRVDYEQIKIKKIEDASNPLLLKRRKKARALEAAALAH
Method: as §1, §5, §6

T1 sequence (P06239 whole entry, species assumed): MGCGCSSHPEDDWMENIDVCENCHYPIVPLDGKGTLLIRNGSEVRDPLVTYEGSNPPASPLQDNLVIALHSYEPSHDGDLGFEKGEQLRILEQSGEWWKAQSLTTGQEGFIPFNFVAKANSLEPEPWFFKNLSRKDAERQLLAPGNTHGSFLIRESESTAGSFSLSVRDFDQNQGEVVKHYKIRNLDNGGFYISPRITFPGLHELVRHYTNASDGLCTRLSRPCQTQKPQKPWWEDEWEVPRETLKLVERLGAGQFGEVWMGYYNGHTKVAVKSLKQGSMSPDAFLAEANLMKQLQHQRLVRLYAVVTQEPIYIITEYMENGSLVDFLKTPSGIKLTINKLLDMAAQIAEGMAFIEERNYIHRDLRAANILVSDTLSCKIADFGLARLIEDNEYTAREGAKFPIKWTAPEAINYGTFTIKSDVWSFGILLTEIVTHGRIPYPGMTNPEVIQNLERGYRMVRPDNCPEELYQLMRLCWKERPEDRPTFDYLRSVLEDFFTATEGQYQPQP

| inhibition at 10 µM (LCK) | inhibition at 10 µM (PKA) | inhibition at 10 µM (AKT1) | inhibition at 10 µM (PRAK) | inhibition at 10 µM (LYN) | inhibition at 10 µM (MSK1) | inhibition at 10 µM (Erk2) | inhibition at 10 µM (Erk1) | inhibition at 10 µM (MAPKAPK2) | Structure (SMILES) |
| --- | --- | --- | --- | --- | --- | --- | --- | --- | --- |
| > 90% | > 90% | 70 to 90% | 70 to 90% | > 90% | 70 to 90% | 70 to 90% | 70 to 90% | – | O=c1[nH]c2ncccc2c2cc(Nc3cccc(F)c3)ccc12 [Example 31, 9-(3-Fluoro-phenylamino)-5H-benzo[c][1,8]naphthyridin-6-one] |
| > 90% | > 90% | > 90% | 70 to 90% | > 90% | > 90% | 70 to 90% | 70 to 90% | 50 to 70% | CC(=O)Nc1ccc(Oc2ccc3c(=O)[nH]c4ncccc4c3c2)cc1 [Example 81, N-[4-(6-Oxo-5,6-dihydro-benzo[c][1,8]naphthyridin-9-yloxy)-phenyl]-acetamide] |
| – | 70 to 90% | – | > 90% | 70 to 90% | 50 to 70% | – | – | > 90% | NC(=O)c1ccc(Oc2ccc3c(=O)[nH]c4ncccc4c3c2)cc1 [Example 82] |
